In PubChem BioAssay (NCI):
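These data come from cells grown in 96-well plates and exposed to compound for 48 hours at five concentrations. GI50: concentration for 50% inhibition of growth. Definition used: TGI = concentration required for complete inhibition of growth.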

How the values were obtained:
Assay in all cases: NCI tumour cell line growth inhibition, 48 h
786-0 renal = tested on: 786-0 renal
A549 NSCLC = tested on: A549 NSCLC
ACHN renal = tested on: ACHN renal
BT-549 breast = tested on: BT-549 breast
CAKI-1 renal = tested on: CAKI-1 renal
CCRF-CEM leukemia = tested on: CCRF-CEM leukemia
COLO 205 colon = tested on: COLO 205 colon
DU-145 prostate = tested on: DU-145 prostate
EKVX NSCLC = tested on: EKVX NSCLC
HCC-2998 colon = tested on: HCC-2998 colon
HCT-116 colon = tested on: HCT-116 colon
HCT-15 colon = tested on: HCT-15 colon
HL-60(TB) leukemia = tested on: HL-60(TB) leukemia
HOP-62 NSCLC = tested on: HOP-62 NSCLC
HS 578T breast = tested on: HS 578T breast
HT29 colon = tested on: HT29 colon
IGROV1 ovarian = tested on: IGROV1 ovarian
K-562 leukemia = tested on: K-562 leukemia
KM12 colon = tested on: KM12 colon
LOX IMVI melanoma = tested on: LOX IMVI melanoma
M14 melanoma = tested on: M14 melanoma
MALME-3M melanoma = tested on: MALME-3M melanoma
MCF7 breast = tested on: MCF7 breast
MDA-MB-231 breast = tested on: MDA-MB-231 breast
MDA-MB-435 = tested on: MDA-MB-435
MOLT-4 leukemia = tested on: MOLT-4 leukemia
NCI-H226 lung = tested on: NCI-H226 lung
NCI-H23 lung = tested on: NCI-H23 lung
NCI-H460 lung = tested on: NCI-H460 lung
NCI-H522 lung = tested on: NCI-H522 lung
NCI/ADR-RES ovarian = tested on: NCI/ADR-RES ovarian
OVCAR-3 ovarian = tested on: OVCAR-3 ovarian
OVCAR-4 ovarian = tested on: OVCAR-4 ovarian
OVCAR-5 ovarian = tested on: OVCAR-5 ovarian
OVCAR-8 ovarian = tested on: OVCAR-8 ovarian
PC-3 prostate = tested on: PC-3 prostate
RPMI-8226 leukemia = tested on: RPMI-8226 leukemia
RXF 393 renal = tested on: RXF 393 renal
SF-268 CNS = tested on: SF-268 CNS
SF-295 CNS = tested on: SF-295 CNS
SF-539 CNS = tested on: SF-539 CNS
SK-MEL-2 melanoma = tested on: SK-MEL-2 melanoma
SK-MEL-28 melanoma = tested on: SK-MEL-28 melanoma
SK-OV-3 ovarian = tested on: SK-OV-3 ovarian
SN12C renal = tested on: SN12C renal
SNB-19 CNS = tested on: SNB-19 CNS
SNB-75 CNS = tested on: SNB-75 CNS
SR leukemia = tested on: SR leukemia
SW-620 colon = tested on: SW-620 colon
T-47D breast = tested on: T-47D breast
TK-10 renal = tested on: TK-10 renal
U251 CNS = tested on: U251 CNS
UACC-257 melanoma = tested on: UACC-257 melanoma
UACC-62 melanoma = tested on: UACC-62 melanoma
UO-31 renal = tested on: UO-31 renal
A498 renal = tested on: A498 renal
SK-MEL-5 melanoma = tested on: SK-MEL-5 melanoma

SMILES: O=C(CNC(=O)c1ccccc1)Oc1c(Cl)c(Cl)c(Cl)c(Cl)c1Cl
- TGI (786-0 renal): > 100 µM
- TGI (A549 NSCLC): > 100 µM
- TGI (ACHN renal): 65.1 µM
- TGI (BT-549 breast): 58.1 µM
- TGI (CAKI-1 renal): 54.9 µM
- TGI (CCRF-CEM leukemia): > 100 µM
- TGI (COLO 205 colon): > 100 µM
- TGI (DU-145 prostate): 49.9 µM
- TGI (EKVX NSCLC): 48 µM
- TGI (HCC-2998 colon): 60.6 µM
- TGI (HCT-116 colon): > 100 µM
- TGI (HCT-15 colon): > 100 µM
- TGI (HL-60(TB) leukemia): 77.5 µM
- TGI (HOP-62 NSCLC): > 100 µM
- TGI (HS 578T breast): 67.6 µM
- TGI (HT29 colon): > 100 µM
- TGI (IGROV1 ovarian): 63.5 µM
- TGI (K-562 leukemia): > 100 µM
- TGI (KM12 colon): 45.6 µM
- TGI (LOX IMVI melanoma): > 100 µM
- TGI (M14 melanoma): > 100 µM
- TGI (MALME-3M melanoma): 57.1 µM
- TGI (MCF7 breast): > 100 µM
- TGI (MDA-MB-231 breast): 66.1 µM
- TGI (MDA-MB-435): 94.1 µM
- TGI (MOLT-4 leukemia): > 100 µM
- TGI (NCI-H226 lung): 88.6 µM
- TGI (NCI-H23 lung): > 100 µM
- TGI (NCI-H460 lung): > 100 µM
- TGI (NCI-H522 lung): 83.8 µM
- TGI (NCI/ADR-RES ovarian): 82.5 µM
- TGI (OVCAR-3 ovarian): 53.3 µM
- TGI (OVCAR-4 ovarian): > 100 µM
- TGI (OVCAR-5 ovarian): > 100 µM
- TGI (OVCAR-8 ovarian): 64 µM
- TGI (PC-3 prostate): 61.4 µM
- TGI (RPMI-8226 leukemia): 78.3 µM
- TGI (RXF 393 renal): > 100 µM
- TGI (SF-268 CNS): > 100 µM
- TGI (SF-295 CNS): 79.9 µM
- TGI (SF-539 CNS): 95.1 µM
- TGI (SK-MEL-2 melanoma): 94.1 µM
- TGI (SK-MEL-28 melanoma): > 100 µM
- TGI (SK-OV-3 ovarian): > 100 µM
- TGI (SN12C renal): > 100 µM
- TGI (SNB-19 CNS): > 100 µM
- TGI (SNB-75 CNS): > 100 µM
- TGI (SR leukemia): > 100 µM
- TGI (SW-620 colon): 67.1 µM
- TGI (T-47D breast): > 100 µM
- TGI (TK-10 renal): 94.1 µM
- TGI (U251 CNS): > 100 µM
- TGI (UACC-257 melanoma): 54.9 µM
- TGI (UACC-62 melanoma): 53.8 µM
- TGI (UO-31 renal): 45.2 µM

SMILES: Cc1cc2c(cc1C)[n+](=O)c(C(=O)C(C)(C)C)c(C(F)(F)F)n2[O-]
- GI50 (786-0 renal): 29.4 µM
- TGI (786-0 renal): > 100 µM
- GI50 (A498 renal): 18.1 µM
- TGI (A498 renal): 44.1 µM
- GI50 (A549 NSCLC): 8.61 µM
- TGI (A549 NSCLC): 26.2 µM
- GI50 (ACHN renal): 16.1 µM
- TGI (ACHN renal): 34.5 µM
- GI50 (BT-549 breast): 12 µM
- TGI (BT-549 breast): 50.5 µM
- GI50 (CAKI-1 renal): 21.3 µM
- TGI (CAKI-1 renal): 55 µM
- GI50 (CCRF-CEM leukemia): 12.3 µM
- TGI (CCRF-CEM leukemia): 49.3 µM
- GI50 (COLO 205 colon): 54.4 µM
- TGI (COLO 205 colon): > 100 µM
- GI50 (DU-145 prostate): 5.45 µM
- TGI (DU-145 prostate): 19.5 µM
- GI50 (EKVX NSCLC): 2.91 µM
- TGI (EKVX NSCLC): 9.95 µM
- GI50 (HCT-116 colon): 10.6 µM
- TGI (HCT-116 colon): > 100 µM
- GI50 (HCT-15 colon): 13.7 µM
- TGI (HCT-15 colon): 55.6 µM
- GI50 (HL-60(TB) leukemia): 5.9 µM
- TGI (HL-60(TB) leukemia): 24.5 µM
- GI50 (HOP-62 NSCLC): 17 µM
- TGI (HOP-62 NSCLC): 59.1 µM
- GI50 (HS 578T breast): 14.4 µM
- TGI (HS 578T breast): 58.6 µM
- GI50 (HT29 colon): 31.7 µM
- TGI (HT29 colon): > 100 µM
- GI50 (IGROV1 ovarian): 5.17 µM
- TGI (IGROV1 ovarian): 20.3 µM
- GI50 (K-562 leukemia): 4.3 µM
- TGI (K-562 leukemia): 19.9 µM
- GI50 (KM12 colon): 25 µM
- TGI (KM12 colon): 62.1 µM
- GI50 (LOX IMVI melanoma): 9.53 µM
- TGI (LOX IMVI melanoma): 25.7 µM
- GI50 (M14 melanoma): 27.5 µM
- TGI (M14 melanoma): 80.8 µM
- GI50 (MALME-3M melanoma): 24.2 µM
- TGI (MALME-3M melanoma): 68.1 µM
- GI50 (MCF7 breast): 20.8 µM
- TGI (MCF7 breast): 77.7 µM
- GI50 (MDA-MB-231 breast): 13.6 µM
- TGI (MDA-MB-231 breast): 37.5 µM
- GI50 (MDA-MB-435): 28.2 µM
- TGI (MDA-MB-435): 78.9 µM
- GI50 (MOLT-4 leukemia): 8.2 µM
- TGI (MOLT-4 leukemia): 29.3 µM
- GI50 (NCI-H226 lung): 16.2 µM
- TGI (NCI-H226 lung): 70.6 µM
- GI50 (NCI-H23 lung): 16.1 µM
- TGI (NCI-H23 lung): 47.6 µM
- GI50 (NCI-H460 lung): 13.7 µM
- TGI (NCI-H460 lung): 34 µM
- GI50 (NCI-H522 lung): 18.9 µM
- TGI (NCI-H522 lung): 49.6 µM
- GI50 (NCI/ADR-RES ovarian): 9.08 µM
- TGI (NCI/ADR-RES ovarian): 27.5 µM
- GI50 (OVCAR-3 ovarian): 21.2 µM
- TGI (OVCAR-3 ovarian): 50.1 µM
- GI50 (OVCAR-4 ovarian): 26.7 µM
- TGI (OVCAR-4 ovarian): > 100 µM
- GI50 (OVCAR-5 ovarian): 8.51 µM
- TGI (OVCAR-5 ovarian): 54.2 µM
- GI50 (OVCAR-8 ovarian): 3.62 µM
- TGI (OVCAR-8 ovarian): 15.5 µM
- GI50 (PC-3 prostate): 6.24 µM
- TGI (PC-3 prostate): 39.2 µM
- GI50 (RPMI-8226 leukemia): 3.57 µM
- TGI (RPMI-8226 leukemia): 15.4 µM
- GI50 (SF-268 CNS): 16.6 µM
- TGI (SF-268 CNS): 82.5 µM
- GI50 (SF-295 CNS): 28.8 µM
- TGI (SF-295 CNS): 85.4 µM
- GI50 (SF-539 CNS): 16.6 µM
- TGI (SF-539 CNS): 41.9 µM
- GI50 (SK-MEL-2 melanoma): 25.6 µM
- TGI (SK-MEL-2 melanoma): 58.7 µM
- GI50 (SK-MEL-28 melanoma): > 100 µM
- TGI (SK-MEL-28 melanoma): > 100 µM
- GI50 (SK-MEL-5 melanoma): 12.5 µM
- TGI (SK-MEL-5 melanoma): 26.9 µM
- GI50 (SK-OV-3 ovarian): 50 µM
- TGI (SK-OV-3 ovarian): > 100 µM
- GI50 (SN12C renal): 14.1 µM
- TGI (SN12C renal): 62.7 µM
- GI50 (SNB-19 CNS): 56.2 µM
- TGI (SNB-19 CNS): > 100 µM
- GI50 (SNB-75 CNS): 45.9 µM
- TGI (SNB-75 CNS): > 100 µM
- GI50 (SR leukemia): 11.5 µM
- TGI (SR leukemia): 33.2 µM
- GI50 (SW-620 colon): 28.4 µM
- TGI (SW-620 colon): > 100 µM
- GI50 (T-47D breast): 32.3 µM
- TGI (T-47D breast): > 100 µM
- GI50 (TK-10 renal): 75.4 µM
- TGI (TK-10 renal): > 100 µM
- GI50 (U251 CNS): 20.8 µM
- TGI (U251 CNS): > 100 µM
- GI50 (UACC-257 melanoma): 7.71 µM
- TGI (UACC-257 melanoma): 41.2 µM
- GI50 (UACC-62 melanoma): 17 µM
- TGI (UACC-62 melanoma): 71.5 µM
- GI50 (UO-31 renal): 17.4 µM
- TGI (UO-31 renal): 33.2 µM
